The values below come from patent US10494404B2, “Quinolinium conjugates of cyclosporin” (priority 2014, dated 2019).

Data set [1] deals with DIV 8-9 rat cortical neurons. The experiment in a line: Mitochondrial functional parameters in DIV 8-9 rat cultured cortical neurons. It is filed as cell-based. To be noted: Compound 1 up to 200 nM, CsA up to 1 μM. As for the experimental part:
The minimum value after the addition of compound (prior to the addition of FCCP) was taken, and this was expressed as a % (using baseline as 100% and FCCP as 0%), and then normalized to DMSO (100%). Significance was assessed by one-way ANOVA, in comparison to DMSO control.
(§1) Freshly isolated mitochondria were resuspended in MSK buffer (containing 10 mM glutamate and 2 mM malate) at 1 mg/ml and plated in opaque white 96 well plates, or for neuronal assays, neurons were used 9 days after plating at 15000 cells/well. Drugs were added at the concentrations specified, and for mitochondrial assays were incubated for ten minutes before addition of ADP (5 mM), followed by another 45 minutes. For neuronal assays, drugs were added in neurobasal medium and incubated for 60 minutes. Cell Titer Glo reagent was then added, and the plate shaken for 2 minutes in the dark to lyse cells/mitochondria and release ATP. The plates were incubated a further ten minutes and then luminescence values read using an Optima FluoStar.

The test system of data set [2] is isolated rat liver mitochondria. The experiment in a line: Mitochondrial functional parameters in isolated liver mitochondria. It is filed as biochemical. The settings on record: Compound 1 up to 200 nM, CsA up to 1 μM. As for the experimental part:
Oxygen consumption was measured using Oroboros Oxygraph-2K as previously described (Astin et al, 2013). Prior to the assay, the Oxygraph chambers were calibrated with Miro5 buffer (0.5 mM EGTA, 3 mM MgCl2.6H2O, 60 mM K-lactobionate, 20 mM taurine, 10 mM KH2PO4, 20 mM HEPES, 110 mM sucrose, 1 g/l BSA (essentially fatty acid free)). Isolated mitochondria were suspended in Miro5 (at 100-200 μg/ml), loaded into the chamber together with substrates (malate, 2 mM; glutamate, 10 mM), and the O2 flow signal was allowed to stabilise to the basal respiration rate (approx. 10 min).
Freshly isolated mouse liver mitochondria were suspended in MSK buffer containing 10 ug/ml rhodamine123 (dequench mode), at a concentration of 500 ug/ml, and plated in an opaque black 96 well plate. Baseline fluorescence was then measured every 60 seconds for 5 minutes in a Fluostar Optima (Ex480/Em520) before manual addition of compounds (concentrations as specified). Fluorescence measurements were continued for 45 minutes until the addition of 2 uM FCCP, followed by a further 10 minutes of fluorescence readings.
as §1

With `CC[C@@H]1NC(=O)[C@H]([C@H](O)[C@H](C)C/C=C/CCC[n+]2cccc3ccccc32)N(C)C(=O)[C@H](C(C)C)N(C)C(=O)[C@H](CC(C)C)N(C)C(=O)[C@H](CC(C)C)N(C)C(=O)[C@@H](C)NC(=O)[C@H](C)NC(=O)[C@H](CC(C)C)N(C)C(=O)[C@H](C(C)C)NC(=O)[C@H](CC(C)C)N(C)C(=O)CN(C)C1=O` [Compound 1, [Gly-(1S,2R,E)-8-quinolinium-1-hydroxy-2-methyloct-4-ene]^1 CsA], the mitochondrial membrane potential result in data set [1] (TMRM) was “Neither mitochondrial membrane potential (FIG. 4A,B), oxygen consumption (FIG. 4C, D) and ATP production (FIG. 4E, F) were affected”; in data set [2] (isolated mitochondria, rhodamine-123) it was “Neither mitochondrial membrane potential (FIG. 4A,B), oxygen consumption (FIG. 4C, D) and ATP production (FIG. 4E, F) were affected”. For the same compound, in data set [1] (luciferase assay), the “ATP levels / ATP production” value was “Neither mitochondrial membrane potential (FIG. 4A,B), oxygen consumption (FIG. 4C, D) and ATP production (FIG. 4E, F) were affected”. Besides, the ATP production entry in data set [2] (isolated mitochondria with substrates and ADP) is “Neither mitochondrial membrane potential (FIG. 4A,B), oxygen consumption (FIG. 4C, D) and ATP production (FIG. 4E, F) were affected”. For the same compound, in data set [2] (isolated mitochondria, glutamate and malate), the oxygen consumption entry is “Neither mitochondrial membrane potential (FIG. 4A,B), oxygen consumption (FIG. 4C, D) and ATP production (FIG. 4E, F) were affected”.
